Results published in the supplement of paper PMC10307832.

Experiments:
Assay in all cases: relative viability (nuclei count vs DMSO), 5 days (fraction); higher = more cells survive
[1] = compound: C=CC(=O)N1CCC[C@@H](n2nc(-c3ccc(Oc4ccccc4)cc3)c3c(N)ncnc32)C1 [Ibrutinib] + CC(C)C[C@H](NC(=O)[C@H](Cc1ccccc1)NC(=O)c1cnccn1)B(O)O [Bortezomib] (partner 0.002 µM)
Method in brief: (§1)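 Lung cancer cell lines were seeded in 1536-well plates and dosed by pin tool the next day, with either a single drug or a fixed anchor-drug dose combined with five library-drug doses (not always all listed) spaced in √10 steps. Five days later, one step fixed the cells and stained their nuclei (final 0.05% Triton X-100, 1% formaldehyde, 1 ug/ml Hoechst), and nuclei were counted on 4× images. Relative viability is the nuclei count in treated wells divided by the count in vehicle wells, and each value is the median of duplicate plates.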

[2] = compound: C=CC(=O)N1CCC[C@@H](n2nc(-c3ccc(Oc4ccccc4)cc3)c3c(N)ncnc32)C1 [Ibrutinib] + COc1cc2c(Oc3ccc(NC(=O)C4(C(=O)Nc5ccc(F)cc5)CC4)cc3F)ccnc2cc1OCCCN1CCOCC1 [Foretinib] (partner 0.25 µM)
Method in brief: as §1

[3] = compound: C=CC(=O)N1CCC[C@@H](n2nc(-c3ccc(Oc4ccccc4)cc3)c3c(N)ncnc32)C1 [Ibrutinib] + C[C@]1(O)C[C@@H](c2nc(-c3ccc4ccc(-c5ccccc5)nc4c3)c3c(N)nccn32)C1 [Linsitinib] (partner 1 µM)
Method in brief: as §1

[4] = compound: C=CC(=O)Nc1cc(-n2c(=O)ccc3cnc4ccc(-c5ccc(NS(C)(=O)=O)cc5)cc4c32)ccc1C [BMX-IN-1] + COc1cc2c(Oc3ccc(NC(=O)C4(C(=O)Nc5ccc(F)cc5)CC4)cc3F)ccnc2cc1OCCCN1CCOCC1 [Foretinib] (partner 0.25 µM)
Method in brief: as §1

Cell Line | relative viability ([1]; first compound 0.005 µM) | relative viability ([1]; first compound 0.01581 µM) | relative viability ([1]; first compound 0.05 µM) | relative viability ([1]; first compound 0.1581 µM) | relative viability ([1]; first compound 0.5 µM) | relative viability ([2]; first compound 0.005 µM) | relative viability ([2]; first compound 0.01581 µM) | relative viability ([2]; first compound 0.05 µM) | relative viability ([2]; first compound 0.1581 µM) | relative viability ([2]; first compound 0.5 µM) | relative viability ([3]; first compound 0.005 µM) | relative viability ([3]; first compound 0.01581 µM) | relative viability ([3]; first compound 0.05 µM) | relative viability ([3]; first compound 0.1581 µM) | relative viability ([3]; first compound 0.5 µM) | relative viability ([4]; first compound 0.02 µM) | relative viability ([4]; first compound 0.2 µM) | relative viability ([4]; first compound 0.6325 µM) | relative viability ([4]; first compound 2 µM)
HCC-78 | 0.513 | 0.453 | 0.58 | 0.496 | 0.488 | 0.651 | 0.489 | 0.527 | 0.547 | 0.348 | 0.555 | 0.489 | 0.432 | 0.485 | 0.33 | 0.626 | 0.544 | 0.587 | 0.545
HCC-366 | 1.03 | 0.977 | 1.09 | 1.01 | 1.07 | 1.04 | 0.909 | 0.958 | 0.866 | 0.881 | 0.634 | 0.614 | 0.662 | 0.51 | 0.614 | 1.03 | 0.962 | 1.01 | 0.886
HCC-827 | 1.19 | 1.05 | 1.15 | 0.982 | 0.807 | 1.04 | 0.993 | 0.813 | 1.03 | 0.165 | 1.01 | 0.947 | 1.01 | 0.854 | 0.32 | 1.01 | 1.02 | 1.03 | 1.03
HOP-62 | 0.459 | 1 | 0.816 | 0.834 | 0.804 | 1.19 | 1.11 | 1.17 | 1.21 | 1.3 | 0.761 | 0.771 | 0.979 | 1.17 | 1.07 | 1.26 | 1.27 | 1.09 | 1.1
IA-LM | 0.846 | 0.781 | 0.926 | 0.989 | 0.863 | 1.11 | 1.04 | 1.1 | 1.24 | 1.1 | 0.397 | 0.658 | 0.453 | 0.512 | 0.56 | 1.53 | 1.31 | 1.15 | 1.21
LC-2-ad | 1.18 | 1 | 1.06 | 0.965 | 1.02 | 0.958 | 0.747 | 0.856 | 0.886 | 0.836 | 0.829 | 0.778 | 0.89 | 0.869 | 0.745 | 0.878 | 0.926 | 0.975 | 0.946
LCLC-97TM1 | 0.447 | 0.851 | 0.385 | 0.153 | 0.732 | 0.945 | 0.881 | 1 | 1 | 0.843 | 0.179 | – | 0.175 | 0.2 | 0.169 | 1.01 | 0.917 | 1.03 | 1.1
LCLC-103H | 0.999 | 1.01 | 1.07 | 0.986 | 1.05 | 0.809 | 0.623 | 0.792 | 0.835 | 0.728 | 1.28 | 1.16 | 1.09 | 1.1 | 1.03 | 0.879 | 0.78 | 0.882 | 0.735
LK-2 | – | – | – | – | – | – | – | 1.32 | 1.27 | 0.996 | 0.422 | 0.7 | 0.552 | 0.377 | 0.528 | 1.59 | 1.54 | 1.04 | 1.03
